Source: patent US8937038B2, “Composition containing peptide ligand that bonds with CXCR2 for treating infective and inflammatory diseases” (priority 2010, dated 2015)
Where no end group is shown, it is not given here. The star is where a group is joined. Palmitoyl = CCCCCCCCCCCCCCCC(=O)*

Key:
mouse neutrophils = assay: H2O2 production in mouse neutrophils; type: cell-based; conditions: neutrophils pretreated with SB225002 30 minutes, then Ac-PGP 20 μM; FIG. 13
Method: Mouse neutrophils were separated from peripheral blood using a Histopaque-1077 solution (Sigma) (Bae Y S et al. 2001 Blood. 97: 2854-2862). The neutrophils separated from normal mice were stimulated with various concentrations of Ac-PGP for 10 minutes in the presence of cytochalasin B (5 μM). To identify the role of mCXCR2, the neutrophils were pre-incubated in various concentrations of SB225002 or a vehicle (DMSO) for 30 minutes in a stationary environment, and Ac-PGP (20 μM) was added, and incubated for 10 minutes. H2O2 in a supernatant was measured using a H2O2 measurement kit (Molecular probe).
A death rate by CLP is correlated with the number of bacterial colonies in a peritoneal fluid. Therefore, an effect of the Ac-PGP on removal of bacteria in a peritoneal fluid was examined. […] In vitro disinfection activity of the Ac-PGP was examined using neutrophils derived from a mouse. The mouse neutrophils were kept for an hour to phagocytize E. coli, and then stimulated with various concentrations of Ac-PGP (0.1 to 100 nM) for 20 minutes. […] A reactive oxygen species such as hydrogen peroxide was known as an important molecule participating in the disinfection activity. Therefore, an effect of Ac-PGP on production of hydrogen peroxide in the mouse neutrophils was examined. […]

PBMCs = assay: Cytokine production by LPS-stimulated human PBMCs; type: cell-based; conditions: human PBMCs stimulated with LPS
Text: (§1) All kinds of protocols used in human beings were approved by the Institutional Review Board (IRB) at Dong-A University Hospital, and prior consents were obtained from all blood donors. Peripheral blood was collected from healthy donors, and human peripheral monocytes were separated using a Histopaque-1077 gradient. Neutrophils were separated through methods such as dextran precipitation of red blood cell, hypotonic lysis, and usage of lymphocyte isolation medium gradient, as known in the related art (Bae, Y. S. et al. Blood 97, 2854-2862(2001)). The separated human leukocytes were used immediately.
(§2) Next, an effect of the Ac-PGP on production of cytokines by human neutrophils and PBMCs was examined. […] A human CXCR2 chemokine agonist CXCL8 had few effects on production of TNF-α or IFN-γ stimulated with LPS (FIG. 28 to FIG. 31). Therefore, the Ac-PGP could improve both antiseptic activities in leukocytes derived from human beings and mice.

human neutrophils = assay: Cytokine production by LPS-stimulated human neutrophils; type: cell-based; conditions: human neutrophils stimulated with LPS
Text: as §1, §2

[1] = test system: cecal ligation and puncture (CLP)-septic mice; conditions: Kuliopulos et al.; cited from earlier work
mouse splenocytes = assay: Cytokine release from LPS-stimulated mouse splenocytes (ELISA); type: cell-based; conditions: LPS 100 ng/ml
Method: Mouse splenocytes were positioned on an RPMI 1640 medium including 5% FBS in a 96-well plate, and maintained at 37° C. in a 5% CO2 incubator. Thereafter, the splenocytes were stationarily incubated with LPS (100 ng/ml) for 24 hours in the presence or absence of Ac-PGP. After 30 minutes, LPS was added to the cells and collected a cell-free supernatant, and then the supernatant was centrifuged, and TNF-α, IL-6 and IFN-γ were measured using ELISA (BD Biosciences Pharmingen). In regards to the effect of IFN-γ on production of pro-inflammatory cytokines induced by LPS, 5×10^5 cells/ml of the mouse splenocytes were stimulated with 100 ng/ml of LPS in the presence or absence IFN-γ (R&D) (at various concentrations of 1, 10, 100 and 1,000 IU/ml). Amounts of TNF-α and IL-6 were measured 20 hours after stationary incubation using ELISA (BD Biosciences Pharmingen).
An effect of the Ac-PGP on a pro-inflammatory cytokine in a peritoneal fluid by CLP was determined from 4 to 72 hours after the CLP. The CLP induced a remarkable increase in levels of pro-inflammatory cytokines (TNF-α, IL-1β and IL-6) within 24 hours (FIGS. 14 to 16). Injection of the Ac-PGP in a sepsis model by the CLP induced a remarkable change in levels of the cytokines. […] To evaluate an effect of the Ac-PGP on production of the pro-inflammatory cytokines by the LPS, in vitro production of TNF-α and IL-6 by the mouse splenocytes was evaluated. Direct release of the TNF-α and IL-6 from the mouse splenocytes by the LPS was suppressed by in vitro treatment with the Ac-PGP (FIGS. 17 and 18).
Since it was confirmed that the administration of the Ac-PGP improved in vivo production of IFN-γ, a direct effect of the Ac-PGP on production of IFN-γ by splenocytes was examined. […] Also, an effect of IFN-γ on production of the pro-inflammatory cytokines was also examined.

O=C(Nc1ccc([N+](=O)[O-])cc1O)Nc1ccccc1Br [SB225002, reference compound]
production of hydrogen peroxide by the Ac-PGP (mouse neutrophils): completely suppressed

CXCL8: human CXCR2 chemokine agonist
production of TNF-α (PBMCs; FIG. 29): few effects | production of IFN-γ (PBMCs; FIG. 31): few effects | production of TNF-α (human neutrophils; FIG. 28): few effects | production of IFN-γ (human neutrophils; FIG. 30): few effects

pal-RTLFKAHMGQKHR (Palmitoyl-RTLFKAHMGQKHR) [x1/2pal-3]
survival rate [1]: remarkable increase in survival rate

B1: IFN-γ: type 1 cytokine (R&D) added to mouse splenocytes at 1 to 1,000 IU/ml (protein, UniProt P01580 23-155, looked up)
Interferon gamma: HGTVIESLESLNNYFNSSGIDVEEKSLFLDIWRNWQKDGDMKILQSQIISFYLRLFEVLKDNQAISNNISVIESHLITTFFSNSKAKKDAFMSIAKFEVNNPQVQRQAFNELIRVVHQLLPESSLRKRKRSRC
production of TNF-α by LPS (mouse splenocytes; 5×10^5 cells/ml, IFN-γ 1, 10, 100 and 1,000 IU/ml, 20 hours, FIG. 25): relieved production | production of IL-6 by LPS (mouse splenocytes; 5×10^5 cells/ml, IFN-γ 1, 10, 100 and 1,000 IU/ml, 20 hours, FIG. 26): relieved production

B2: KC: counterpart of mouse IL-8; mouse chemokine activating CXCR2 (protein, UniProt P12850 25-96, looked up)
Growth-regulated alpha protein: APIANELRCQCLQTMAGIHLKNIQSLKVLPSGPHCTQTEVIATLKNGREACLDPEAPLVQKIVQKMLKGVPK
release of TNF-α by LPS (mouse splenocytes; 24 hours, FIG. 17): could not suppress | release of IL-6 by LPS (mouse splenocytes; 24 hours, FIG. 18): could not suppress
